# Where two headings read alike, the source gives them in different places.
# What was measured:
# yeast cells = conditions: 1 mM nitrite, light 3 doses of 6.4 J/cm^2
# Text: The effects of broad spectrum light on the expression of the nuclear COX genes for Cco and the overall level of cellular respiration were examined. Because cytochrome c oxidase is a major regulator of respiration and because the nuclear genes (COX) for cytochrome c oxidase are highly regulated by a variety of environmental factors and function to regulate the overall activity of Cco, their level of expression provides a useful measure for the long-term effects of light on Cco. Similarly, the rate of respiration per se provides a direct measure of the effects of light on the entire respiratory chain.
# Yeast cells were grown in liquid media for three hours, which is equivalent to the time it takes for one cell division. […]
# Light from a Broadband 50 watt Xenon/Halogen Floodlight was administered at the beginning of each hour for a total of 3 doses, each at 6.4 J/cm^2 (105 mW/cm^2). After 3 hours, cells were harvested and analyzed for measurement of gene expression (by quantitiative PCR), or respiration (by polarographic oxygen consumption). qPCR was performed with primers designed for COX of Cco subunits COX4, COX5a, COX5b, COX6, and COX8. Each sample was run in duplicate and gene expression was quantified by normalizing to PMAI, a yeast gene that is expressed at constant levels, irrespective of the environment in which cells are grown.
# NT2 cells = experiment: Oxidative stress induced APP processing in NT2 cells; format: cell-based; conditions: for APP processing as assessed by Aβ1-42 production: FIG. 17
# Text: Broadband light reverses oxidative stress induced APP processing to Aβ1-42. […] Broad band light (7.5 Joules total dose) reversed the oxidative stress affects back to control levels (FIG. 17).
# Broadband light reverses oxidative stress induced APP processing to Aβ1-40. […] Broad band light (7.5 Joules total dose) reversed the oxidative stress affects back to control levels (FIG. 18).
# mitochondrial Cco = biological target: T1, mitochondrial Cco (Mus musculus, UniProt P00397); experiment: Cco/NO activity (nitrite-dependent NO synthesis) in cerebrum mitochondria, NO electrode; format: biochemical; conditions: hypoxic conditions, ascorbate/TMPD as electron donor pair, cerebrum mitochondria of 7-12 day old mice
# T1 construct: These experiments used mitochondria isolated from the cerebrum of 7-12 day old mice; from tissue; host or cells: mitochondria from mouse cerebrum (7-12 day old mice)
# Text: We have studied Cco/NO activity in both human endothelial cells and mouse brain nervous tissue. All of the assays for Cco/NO activity were done in a closed chamber, as described elsewhere (Castello et al. 2006, Cell Metabolism 3, 277-287). Cells or mitochondria were allowed to respire and consume oxygen all of the oxygen in the chamber before the addition of nitrite, which initiated the reaction.
# Results with mouse nerve cells. These experiments used mitochondria isolated from the cerebrum of 7-12 day old mice. Using the same assay we used for endothelial cell mitochondria, we assayed Cco/NO activity under hypoxic conditions with ascorbate/TMPD as an electron donor pair. […] To confirm that we had measured NO synthesis we added PTIO, an NO scavenger.
smiles,measurement,setting,value
"O=NO [+Nitrite, nitrite]",Oxygen Consumption,yeast cells; Hypoxia (1% O2),14.27 ± 0.26 nmol/min/mg cells
same,Oxygen Consumption,yeast cells; Normoxia,15.21 ± 0.47 nmol/min/mg cells
CCCCCC(O)/C=C/C=O (stereo not drawn) [FINE],APP processing as assessed by Aβ1-42 production,NT2 cells,dramatic increases
same,APP processing as assessed by Aβ1-40 production,NT2 cells; FIG. 18,dramatic increases
OO [H2O2],APP processing as assessed by Aβ1-42 production,NT2 cells,dramatic increases
CC1(C)N([O])C(c2ccccc2)=[N+]([O-])C1(C)C [PTIO],Removal of the NO produced by mitochondrial Cco (NO scavenger),mitochondrial Cco,completely removes the NO produced

# Source: patent US20160008627A1, “METHODS AND DEVICES FOR VISIBLE LIGHT MODULATION OF MITOCHONDRIAL FUNCTION IN HYPOXIA AND DISEASE” (Clarimedix Inc., priority 2008, published 2016)
